# Experimental data from ChEMBL document CHEMBL6127128, “Discovery of the First-in-Class Dual-Target ROCK/HDAC Inhibitor with Potent Antitumor Efficacy in Vivo That Trigger Antitumor Immunity” (J Med Chem, 2024).
# Calls of active or inactive are those of the source. The rule behind the calls is not given here.
# Columns and labels:
# [1] = test system: MDA-MB-231; test: Cytotoxicity against human MDA-MB-231 cells assessed as reduction in cell viability incubated for 72 hrs by SRB assay; format: functional, cell-based; conditions: MDA-MB-231, 72 h
# [2] = molecular target: Rho-associated protein kinase 2 (Homo sapiens, UniProt O75116); test: Inhibition of N-terminal GST-tagged human recombinant wild type ROCK2 (1 to 553 residues) expressed in baculovirus-infected Sf21 cells by HTRF KinEASE assay
# [3] = molecular target: Rho-associated protein kinase 1 (Homo sapiens, UniProt Q13464); test: Inhibition of N-terminal GST-tagged human recombinant ROCK1 (17 to 535 residues) expressed in baculovirus-infected Sf9 cells by HTRF KinEASE assay
# [4] = test system: 4T1; test: Antitumor immunity against mouse 4T1 cells implanted in Balb/c mouse assessed as increase in CD8+ T cells in tumor tissue at 50 mg/kg, po administered daily for 15 days by flow cytometry; format: functional, organism-based; conditions: time 15.0 day
# [5] = test system: 4T1; test: Antitumor immunity against mouse 4T1 cells implanted in Balb/c mouse assessed as increase in CD4+ T cells in tumor tissue at 50 mg/kg, po administered daily for 15 days by flow cytometry; format: functional, organism-based; conditions: time 15.0 day
# [6] = test system: 4T1; test: Antitumor immunity against mouse 4T1 cells implanted in Balb/c mouse assessed as increase in CD3+ T cells in tumor tissue at 50 mg/kg, po administered daily for 15 days by flow cytometry; format: functional, organism-based; conditions: time 15.0 day
# [7] = test system: 4T1; test: Cytotoxicity against mouse 4T1 cells assessed as reduction in cell viability; format: functional, cell-based
# Chain of Rho-associated protein kinase 2 (O75116 whole entry, the tested form may be a part): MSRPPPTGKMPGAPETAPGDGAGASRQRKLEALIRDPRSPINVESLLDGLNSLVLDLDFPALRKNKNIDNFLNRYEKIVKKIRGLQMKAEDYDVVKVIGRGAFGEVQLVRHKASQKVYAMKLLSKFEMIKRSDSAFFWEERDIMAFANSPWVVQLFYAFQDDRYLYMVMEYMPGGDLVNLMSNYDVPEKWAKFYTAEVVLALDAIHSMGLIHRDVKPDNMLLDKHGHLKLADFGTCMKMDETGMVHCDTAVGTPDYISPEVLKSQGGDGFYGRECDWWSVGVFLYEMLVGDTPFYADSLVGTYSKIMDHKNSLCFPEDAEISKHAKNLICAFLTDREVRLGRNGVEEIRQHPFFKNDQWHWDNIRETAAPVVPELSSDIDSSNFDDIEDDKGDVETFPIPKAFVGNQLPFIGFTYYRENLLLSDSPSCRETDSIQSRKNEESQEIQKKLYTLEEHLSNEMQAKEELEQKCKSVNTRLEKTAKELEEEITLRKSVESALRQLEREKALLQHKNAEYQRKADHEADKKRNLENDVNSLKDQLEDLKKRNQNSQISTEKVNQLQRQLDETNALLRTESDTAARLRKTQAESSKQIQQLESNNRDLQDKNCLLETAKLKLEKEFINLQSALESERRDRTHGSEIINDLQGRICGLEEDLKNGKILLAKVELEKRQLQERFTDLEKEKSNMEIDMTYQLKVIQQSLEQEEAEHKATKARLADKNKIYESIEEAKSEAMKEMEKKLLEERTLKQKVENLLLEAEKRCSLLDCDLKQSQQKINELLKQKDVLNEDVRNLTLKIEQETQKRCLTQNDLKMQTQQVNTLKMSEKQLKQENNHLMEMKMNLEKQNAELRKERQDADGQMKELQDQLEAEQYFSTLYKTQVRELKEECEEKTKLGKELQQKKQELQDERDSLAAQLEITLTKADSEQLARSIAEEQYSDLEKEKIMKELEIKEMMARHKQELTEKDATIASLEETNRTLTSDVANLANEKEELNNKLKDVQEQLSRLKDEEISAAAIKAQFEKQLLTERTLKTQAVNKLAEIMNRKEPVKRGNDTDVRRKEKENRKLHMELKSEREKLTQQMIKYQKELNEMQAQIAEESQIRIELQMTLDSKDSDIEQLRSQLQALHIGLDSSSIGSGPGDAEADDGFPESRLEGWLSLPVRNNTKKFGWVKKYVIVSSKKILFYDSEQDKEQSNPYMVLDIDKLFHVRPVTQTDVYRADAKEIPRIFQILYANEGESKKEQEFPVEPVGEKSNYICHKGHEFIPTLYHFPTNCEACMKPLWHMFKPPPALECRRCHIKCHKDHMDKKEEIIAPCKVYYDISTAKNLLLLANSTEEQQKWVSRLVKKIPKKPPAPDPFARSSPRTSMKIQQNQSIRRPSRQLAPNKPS
smiles,measurement,setting,value
O=C(CCCCCCCNC(=O)c1cc2c(-c3ccncc3)cccc2s1)NO,IC50,[1],> 10 µM
COc1cccc(CNC(=O)c2cc3ccc(-c4cccc5cnccc45)cc3s2)c1,IC50,[2],> 1000 nM
COc1cccc(CNC(=O)c2cc3c(-c4ccc5[nH]ncc5c4)cccc3s2)c1,IC50,[2],> 1000 nM
COc1cccc(CNC(=O)c2cc3c(-c4cccc5cnccc45)cccc3s2)c1,IC50,[2],> 1000 nM
O=C(CCCCCNC(=O)c1cc2cc(-c3cn[nH]c3)ccc2s1)NO,IC50,[1],> 10 µM
O=C(CCCCCCNC(=O)c1cc2ccc(-c3ccncc3)cc2s1)NO,IC50,[1],0.95 µM
O=C(CCCCCCNC(=O)c1cc2cccc(-c3ccncc3)c2s1)NO,IC50,[1],1.54 µM
COc1cccc(CNC(=O)c2cc3cc(-c4cn[nH]c4)ccc3s2)c1,IC50,[2],6.75 nM
same,inhibition (active/inactive call),[3],Active
O=C(CCCCCNC(=O)c1cc2cc(-c3ccncc3)ccc2s1)NO,IC50,[1],> 10 µM
O=C(CCCCCNC(=O)c1cc2ccc(-c3ccncc3)cc2s1)NO,IC50,[1],> 10 µM
CN[C@@H]1C[C@H](c2ccc3c(c2O)C(=O)c2c(C)sc(C(C)=O)c2C3=O)O[C@H](C)[C@H]1O,IC50,[2],8890 nM
O=C(CCCCCCCNC(=O)c1cc2cccc(-c3cn[nH]c3)c2s1)NO,IC50,[1],> 10 µM
O=C(CCCCCCNC(=O)c1cc2c(-c3cn[nH]c3)cccc2s1)NO,IC50,[1],> 10 µM
O=C(CCCCCCC(=O)Nc1ccccc1)NO [VORINOSTAT],IC50,[1],0.66 µM
same,Activity,[4],Active
same,Activity,[5],Active
same,Activity,[6],Active
O=C(CCCCCCNC(=O)c1cc2ccc(-c3cn[nH]c3)cc2s1)NO,IC50,[1],1.26 µM
COc1cccc(CNC(=O)c2cc3cccc(-c4ccc5[nH]ncc5c4)c3s2)c1,IC50,[2],> 1000 nM
O=C(CCCCCCCNC(=O)c1cc2ccc(-c3ccncc3)cc2s1)NO,IC50,[2],> 1000 nM
same,IC50,[1],0.46 µM
same,IC50,[3],> 1000 nM
COc1cccc(CNC(=O)c2cc3cc(-c4cccc5cnccc45)ccc3s2)c1,IC50,[2],> 1000 nM
O=C(CCCCCCNC(=O)c1cc2cccc(-c3cn[nH]c3)c2s1)NO,IC50,[1],9.05 µM
COc1cccc(CNC(=O)c2cc3ccc(-c4cn[nH]c4)cc3s2)c1,IC50,[2],7.94 nM
same,inhibition (active/inactive call),[3],Active
O=C(CCCCCNC(=O)c1cc2c(-c3cn[nH]c3)cccc2s1)NO,IC50,[1],3.21 µM
COc1cccc(CNC(=O)c2cc3cccc(-c4ccncc4)c3s2)c1,IC50,[2],> 1000 nM
COc1cccc(CNC(=O)c2cc3cc(-c4ccncc4)ccc3s2)c1,IC50,[2],> 1000 nM
O=C(CCCCCCCNC(=O)c1cc2cccc(-c3ccncc3)c2s1)NO,IC50,[1],> 10 µM
O=C(CCCCCCCNC(=O)c1cc2ccc(-c3cn[nH]c3)cc2s1)NO,IC50,[1],0.76 µM
O=C(CCCCCCCNC(=O)c1cc2cc(-c3ccncc3)ccc2s1)NO,IC50,[2],> 1000 nM
same,IC50,[1],0.42 µM
same,IC50,[3],> 1000 nM
COc1cccc(CNC(=O)c2cc3cc(-c4ccc5[nH]ncc5c4)ccc3s2)c1,IC50,[2],> 1000 nM
O=C(CCCCCNC(=O)c1cc2cccc(-c3ccncc3)c2s1)NO,IC50,[1],> 10 µM
C[C@@H](N)[C@H]1CC[C@H](C(=O)Nc2ccncc2)CC1 [Y-27632],IC50,[7],> 10 µM
same,IC50,[1],> 10 µM
COc1cccc(CNC(=O)c2cc3cccc(-c4cccc5cnccc45)c3s2)c1,IC50,[2],> 1000 nM
O=C(CCCCCNC(=O)c1cc2ccc(-c3cn[nH]c3)cc2s1)NO,IC50,[1],> 10 µM
COc1cccc(CNC(=O)c2cc3c(-c4ccncc4)cccc3s2)c1,IC50,[2],> 1000 nM
O=C(CCCCCNC(=O)c1cc2cccc(-c3cn[nH]c3)c2s1)NO,IC50,[1],> 10 µM
COc1cccc(CNC(=O)c2cc3c(-c4cn[nH]c4)cccc3s2)c1,IC50,[2],> 1000 nM
COc1cccc(CN(CCN(C)C)C(=O)c2nc3ccc(-c4cn[nH]c4)cc3s2)c1,IC50,[2],< 1 nM
COc1cccc(CNC(=O)c2cc3ccc(-c4ccncc4)cc3s2)c1,IC50,[2],296 nM
same,inhibition (active/inactive call),[3],Active
COc1cccc(CNC(=O)c2cc3cccc(-c4cn[nH]c4)c3s2)c1,IC50,[2],225 nM
same,inhibition (active/inactive call),[3],Active
O=C(CCCCCCCNC(=O)c1cc2c(-c3cn[nH]c3)cccc2s1)NO,IC50,[1],> 10 µM
O=C(CCCCCNC(=O)c1cc2c(-c3ccncc3)cccc2s1)NO,IC50,[1],> 10 µM
COc1cccc(CNC(=O)c2cc3ccc(-c4ccc5[nH]ncc5c4)cc3s2)c1,IC50,[2],> 1000 nM
O=C(CCCCCCNC(=O)c1cc2cc(-c3ccncc3)ccc2s1)NO,IC50,[2],> 1000 nM
same,IC50,[1],0.13 µM
same,IC50,[3],> 1000 nM
O=C(CCCCCCCNC(=O)c1cc2cc(-c3cn[nH]c3)ccc2s1)NO,IC50,[1],6.42 µM
O=C(CCCCCCNC(=O)c1cc2c(-c3ccncc3)cccc2s1)NO,IC50,[1],2.9 µM
